Source: patent US20110245334A1, “USE OF RACEMATES OF PINOCEMBRIN IN PREPARING MEDICAMENTS FOR TREATING STROKE” (CSPC Zhonggi Pharmaceutical Technology (Shijiazhuang) Co. …, priority 2008, published 2011)

Tests used:
Type in all cases: in vivo, rat
plasma ET-1 = test: Plasma ET-1 (radioimmunoassay) in SHRSP; design: ET-1 content: unit not given here; conditions: plasma, SHRSP rats
Procedure: 5) Blood of 2 mL was dropped rapidly in a cuvette with 30 μL 7.5% EDTA-2Na and 40 μL aprotinin and mixed. After centrifuged for 5 min at 3000 rpm, plasma ET-1 in liquid supernatant was determined by isotope radioimmunoassay.

MCAO rats [1] = test: Neurobehavioral examination (Bederson's score), MCAO acute ischemic stroke
Procedure: Experimental animals: 100 male SD rats with a body weight of 250-280 g were purchased from the Experimental Animals Institute of the Chinese Academy of Medical Science. The rats were grouped randomly as a sham operation group, a model group, pinocembrin groups and a nimodipine group (3 mg/kg).
Experimental model: the model of acute ischemic stroke was made by middle cerebral artery occlusion (MCAO).
The string occlusion method in middle cerebral artery as established by Zea Longa was adopted with proper improvements. 400 mg/kg 10% chloral hydrate was intraperitoneally injected in rats. The external carotid artery (ECA) was separated and ligated at the site where the artery emitted for about 0.8 cm. The end of ECA closing to the heart was clipped by an artery clip. A 2 mm V-shaped incision was made from ECA ligation to ECA bifurcation. A nylon line was inserted gently into […] and then into internal carotid artery (ICA) through the bifurcation of ECA and ICA after loosening the artery clip. The nylon line was pushed into the brain through ICA and inserted in depth of 18.5±0.5 mm when resistance was felt slightly. The nylon line should reach smaller anterior cerebral artery through the beginning of middle cerebral artery (MCA) and ICA could be ligated and sutured. Stump of the nylon line should be reserved with 1 cm outside the skin.
Neurobehavioral examination was performed before the animals were put to death. The rats were raised off the ground for about 1 chi (1 chi=⅓ meter) to observe the state of two forelimbs. The rats were placed on the ground and were pushed by their shoulders to observe differences of their resistance. The rats were placed on the ground and were observed by the way of walking. Four-stage scoring method […] was adopted. The higher the score was, the more serious injury existed in their neurobehavior.
Bederson's scoring standard:
(1) If the rats acted completely normal, score 0 was recorded.
(2) When the rats were raised off the ground, if the rats rotated or retracted forelimb of surgery-contralateral side internally, score 1 was recorded.
(3) When the rats were placed on the ground and squeezed with the hand to examine the resistance of both sides, if the resistance of surgery-contralateral side declined, score 2 was recorded.
(4) When the rats were placed on the ground to observe the way of walking, if the rats circled around the surgery-contralateral side, score 3 was recorded.
(5) If the rats were injured too seriously to move by themselves, score 4 was recorded.

MCAO rats [2] = test: Cerebral infarct volume (TTC), MCAO
Procedure: After neurobehavioral scoring, the rats were put to death by decollation and their brain tissues were removed quickly and put into a refrigerator of −20° C. 10 min later, the brain tissue was moved to an environment of room temperature. After the olfactory bulb, cerebellar and lower brain stem were resected, the brain tissue was cut into five continuous coronal slices with an interval of 2 mm and was cut first on the connection midpoint of brain anterior pole and optic decussation, second on optic decussation, third on funnel handle and fourth on midpoint of funnel handle and thick leaves caudate nucleus. Then the brain slices were quickly put into 5 ml solution containing 4% TTC and 0.1 ml mol·L^−1K2HPO4 and incubated at a constant temperature of 37° C. and in condition of darkness for 30 min. During the time period, the brain slices were tipped every 5 min. […] Every group of brain slices were put in order and photographed. The photographs were processed by an image analysis system and infarct area in every slice was calculated. The infarct volume of every slice was calculated by multiplying the infarct area by the thickness of slice (2 mm), and the infarct volume was the sum of infarct volumes of all slices.
Infarct volume(%)=(volume of surgery-contralateral hemisphere−infarct volume of surgery-homolateral hemisphere)/volume of surgery-contralateral hemisphere×100%

tMCAO rats = test: Neurobehavioral examination (Bederson's score), tMCAO time window study; conditions: 2 hours ischemia and 24 hours reperfusion
Procedure: 1. In the test, transient middle cerebral artery occlusion (tMCAO) model of rats was adopted. The reperfusion was performed after focal cerebral ischemia for 2 hours so as to inspect therapeutic time window of pinocembrin after focal cerebral ischemia. The rats were administered by pinocembrin racemate (1 mg/kg, 5 mg/kg, intravenous injection) after reperfusion 1 hour, 4 hours and 6 hours (i.e., ischemia 3 hour, 6 hours and 8 hours). (R)-pinocembrin and (S)-pinocembrin (1 mg/kg, 5 mg/kg, intravenous injection) were administered after reperfusion 1 hour and 4 hours (i.e., ischemia 3 hour and 6 hours). The therapeutic time windows of these drugs in focal cerebral ischemia were assessed by studying their effects to neurological symptom scores, infarct sizes and brain water contents during 24 hours after tMCAO.
The CCA and ICA were clipped with artery clips. Two No. 0 surgery lines were litigated on the ECA distal end with 2-3 mm spacing and then the vascular between the two surgery lines was cut. The distal end of ECA was pulled until it formed a straight line with the ICA. An incision was cut on ECA and a nylon line was inserted through ECA into ICA. After the artery clip was loosen, the nylon line was pushed on into the brain through ICA and inserted in depth of 18.5±0.5 mm when resistance was felt slightly. The nylon line reached a smaller anterior cerebral artery through the beginning of MCA and then the blood flow obstruction in right MCA was established. the animals were kept in anesthesia during the obstruction. After 2 hours of obstruction, the nylon line was gently pulled out to ECA stub to form reperfusion. During the surgery process, the animals were irradiated by table lamp of 100 W to maintain the body temperature. The room temperature was kept in range of 23-25° C.
2.4 Experimental Grouping and Administration • Sham operation group (intravenous injection of normal saline after 3 hours of ischemia); • Model group (intravenous injection of 50 mg/kg hydroxypropyl β-cyclodextrin after 3 hours of ischemia); • Nimodipine group (1 mg/kg, administered after 3 hours of ischemia); • Pinocembrin racemate group (1 mg/kg, 5 mg/kg, administered after 3, 6 and 8 hours of ischemia); • (R)-pinocembrin group (1 mg/kg, 5 mg/kg, administered after 3 and 6 hours of ischemia); • (S)-pinocembrin group (1 mg/kg, 5 mg/kg, administered after 3 and 6 hours of ischemia).
First administration was performed by intravenous injection, and intraperitoneal injection was carried out once 12 hours later with a dose 1.5 times of that for intravenous injection.
Neurobehavioral examination was performed respectively when the animals were awake after surgery and before the animals were put to death. Bederson's score was adopted (see details in Example 2, 1. Neurobehavioral Examination).

Compound	ET-1 content (plasma ET-1; 3 mg/kg)	ET-1 content (plasma ET-1; 10 mg/kg)	ET-1 content (plasma ET-1; 30 mg/kg)	Bederson's score (MCAO rats [1]; 3 mg/kg)	Bederson's score (MCAO rats [1]; 10 mg/kg)	Bederson's score (MCAO rats [1]; 30 mg/kg)	Percentage of infarct volume (%) (MCAO rats [2]; 3 mg/kg)	Percentage of infarct volume (%) (MCAO rats [2]; 3 mg/kg, listed as pinocembrin racemate)	Percentage of infarct volume (%) (MCAO rats [2]; 10 mg/kg)	Percentage of infarct volume (%) (MCAO rats [2]; 10 mg/kg, listed as pinocembrin racemate)	Percentage of infarct volume (%) (MCAO rats [2]; 30 mg/kg)	Percentage of infarct volume (%) (MCAO rats [2]; 30 mg/kg, listed as pinocembrin racemate)	Neurobehavioral value (tMCAO rats; 1 mg/kg, 3 h)	Neurobehavioral value (tMCAO rats; 1 mg/kg, 6 h)	Neurobehavioral value (tMCAO rats; 1 mg/kg, 8 h)	Neurobehavioral value (tMCAO rats; 5 mg/kg, 3 h)	Neurobehavioral value (tMCAO rats; 5 mg/kg, 6 h)	Neurobehavioral value (tMCAO rats; 5 mg/kg, 8 h)	Percentage of infarct volume (%) (MCAO rats [2]; 3 mg/kg, listed as nimodipine)
O=C1CC(c2ccccc2)Oc2cc(O)cc(O)c21 (racemic) [Pinocembrin racemate, pinocembrin racemate]	221.4 ± 20.4	209.2 ± 16.7	182.4 ± 24.2	2.4 ± 0.7	1.8 ± 0.6	1.5 ± 0.3	23.1 ± 3.4 %	23.1±3.4%	21.4 ± 2.1 %	21.4±2.1%	14.6 ± 1.1 %	14.6±1.1%	1.44 ± 0.72	1.68 ± 0.46	1.88 ± 0.61	1.44 ± 0.52	1.66 ± 0.77	1.91 ± 0.66	–
COCCOC(=O)C1=C(C)NC(C)=C(C(=O)OC(C)C)C1c1cccc([N+](=O)[O-])c1 (centres unmarked) [Nimodipine, reference compound]	174.8 ± 20.8	–	–	2.5 ± 0.7	–	–	16.7 ± 1.3 %	–	–	–	–	–	2.09 ± 0.63	–	–	–	–	–	16.7±1.3%
